Here are results for three compounds from patent US12543737B2, “Herbicidal composition and method for controlling weeds” (SUMITOMO CHEMICAL COMPANY, LIMITED, priority 2020, dated 2026).

For experiment [1], the system named is waterhemp (Amaranthus tuberculatus=Amaranthus rudis=Amaranthus tamariscinus) having the substitution of an amino acid residue of G210Δ in PPX2. The experiment is described as follows: Herbicidal effect, foliar spray pot test in greenhouse (Example 9). The class given is in vivo. Conditions: spray volume 216 L/ha, 28 days after spraying, rating 0 to 100.
Experiment [2] has the same test system. The experiment is described as follows: Herbicidal effect, foliar spray pot test in greenhouse (Example 10). Conditions: 216 L/ha, 28 days after spraying, rating 0 to 100. The class given is in vivo.
[3] abbreviates: glufosinate-ammonium 350 g/ha alone.

In the case of `CCOC(=O)COc1ncccc1Oc1cc(-n2c(=O)cc(C(F)(F)F)n(C)c2=O)c(F)cc1Cl` [compound X, epyrifenacil], the results for the Herbicidal effect in experiment [1] (compound X 0.5 g/ha alone) and in experiment [1] (compound X 1 g/ha alone) were 17 and 18, respectively. Take `CP(=O)(O)CCC(N)C(=O)O` (centres unmarked) [glufosinate-ammonium]: the Herbicidal effect in experiment [2] (setting [3]) and in experiment [1] (setting [3]) was 37 in each case. As for `C#CCN1C(=O)C(F)(F)Oc2cc(F)c(-n3c(=O)n(C)c(=S)n(C)c3=O)cc21` [trifludimoxazin], the Herbicidal effect in experiment [2] (trifludimoxazin 0.5 g/ha alone) is given as 10.
